Laboratory results: US20220088016A1, “CANCER TREATMENT USING MULTI-TARGETED KINASE INHIBITOR IN COMBINATION OF PROTEIN KINASE BIOMARKERS” (ZHEJIANG CROWNMAB BIOTECH CO. LTD., priority 2019, published 2022)

Columns and labels:
Assay in all cases: Kinase profiling
Format in all cases: binding
Conditions in all cases: read-out: % Ctrl @ 1000 nM
[1] = biological target: EPHA8 (Homo sapiens, UniProt P29322)
[2] = biological target: p38-alpha (Homo sapiens, UniProt Q16539)
[3] = biological target: CSNK1A1 (Homo sapiens, UniProt P48729)
[4] = biological target: TSSK1B (Homo sapiens, UniProt Q9BXA7)
Sequence of TSSK1B (Q9BXA7 whole entry): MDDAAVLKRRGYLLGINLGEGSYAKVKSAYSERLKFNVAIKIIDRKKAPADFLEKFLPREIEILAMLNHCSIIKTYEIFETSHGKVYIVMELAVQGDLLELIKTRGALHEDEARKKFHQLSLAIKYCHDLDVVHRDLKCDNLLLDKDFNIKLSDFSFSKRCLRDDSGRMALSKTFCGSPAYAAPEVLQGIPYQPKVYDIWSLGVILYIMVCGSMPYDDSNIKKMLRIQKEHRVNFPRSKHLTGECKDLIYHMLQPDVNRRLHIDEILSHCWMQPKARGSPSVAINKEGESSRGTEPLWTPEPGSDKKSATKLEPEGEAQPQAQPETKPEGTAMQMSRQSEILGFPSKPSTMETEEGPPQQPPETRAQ

[5] = biological target: VPS34 (Homo sapiens, UniProt Q8NEB9)
[6] = biological target: JAK2 (JH1domain-catalytic) (Homo sapiens, UniProt O60674)
[7] = biological target: PIP5K1C (Homo sapiens, UniProt O60331)
[8] = biological target: BMPR1A (Homo sapiens, UniProt P36894)
[9] = biological target: AURKB (Homo sapiens, UniProt Q96GD4)
[10] = biological target: CAMK1B (Homo sapiens, UniProt Q6P2M8)
Sequence of CAMK1B (Q6P2M8 whole entry): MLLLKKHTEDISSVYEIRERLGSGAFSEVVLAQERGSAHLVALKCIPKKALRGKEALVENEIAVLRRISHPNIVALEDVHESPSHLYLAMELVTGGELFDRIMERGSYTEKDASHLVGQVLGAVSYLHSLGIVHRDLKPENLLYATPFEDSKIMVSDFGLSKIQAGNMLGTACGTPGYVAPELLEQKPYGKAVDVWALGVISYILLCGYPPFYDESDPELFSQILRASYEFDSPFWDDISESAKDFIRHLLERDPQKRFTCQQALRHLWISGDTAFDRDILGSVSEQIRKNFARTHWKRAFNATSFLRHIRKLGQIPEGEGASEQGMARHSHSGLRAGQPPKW

[11] = biological target: PRKCH (Homo sapiens, UniProt P24723)
[12] = biological target: ACVR1B (Homo sapiens, UniProt P36896)
[13] = biological target: KIT-autoinhibited (Homo sapiens, UniProt P10721)
Sequence of KIT-autoinhibited (P10721 544-976 limits assumed): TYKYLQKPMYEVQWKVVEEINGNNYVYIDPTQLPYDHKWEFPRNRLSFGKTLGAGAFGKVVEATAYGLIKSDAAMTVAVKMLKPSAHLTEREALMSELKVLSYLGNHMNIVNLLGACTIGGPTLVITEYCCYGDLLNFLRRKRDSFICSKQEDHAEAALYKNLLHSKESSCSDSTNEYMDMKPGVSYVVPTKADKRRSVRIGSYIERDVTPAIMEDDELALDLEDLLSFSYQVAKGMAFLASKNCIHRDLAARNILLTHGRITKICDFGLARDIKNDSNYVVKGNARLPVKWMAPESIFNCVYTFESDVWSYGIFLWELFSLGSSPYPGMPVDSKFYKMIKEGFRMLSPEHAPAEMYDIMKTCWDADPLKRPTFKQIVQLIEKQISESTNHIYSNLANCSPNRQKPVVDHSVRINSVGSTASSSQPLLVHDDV

[14] = biological target: T1, NEK3 (Homo sapiens, UniProt P51956)
T1 construct: T7 phage fusion (said for most assays); made in house

[15] = biological target: ERK2 (Homo sapiens, UniProt P28482)
[16] = biological target: JAK3 (JH1domain-catalytic) (Homo sapiens, UniProt P52333)
Sequence of JAK3 (JH1domain-catalytic) (P52333 822-1111 limits assumed): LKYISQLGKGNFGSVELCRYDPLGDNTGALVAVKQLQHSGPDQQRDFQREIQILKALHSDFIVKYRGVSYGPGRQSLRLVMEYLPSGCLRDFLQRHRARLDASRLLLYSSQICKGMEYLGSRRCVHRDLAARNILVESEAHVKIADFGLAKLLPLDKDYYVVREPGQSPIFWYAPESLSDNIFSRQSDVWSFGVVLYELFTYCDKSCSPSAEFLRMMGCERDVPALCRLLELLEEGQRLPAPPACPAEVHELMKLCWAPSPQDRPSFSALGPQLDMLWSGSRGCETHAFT

[17] = biological target: SIK2 (Homo sapiens, UniProt Q9H0K1)
[18] = biological target: T2, MST1R (Homo sapiens, UniProt Q04912)
T2 construct: T7 phage fusion (stated for most kinases of the panel only); made in house; host or cells: T7 phage in E. coli (BL21-derived) or HEK-293 cells
T2 sequence (Q04912 25-1400): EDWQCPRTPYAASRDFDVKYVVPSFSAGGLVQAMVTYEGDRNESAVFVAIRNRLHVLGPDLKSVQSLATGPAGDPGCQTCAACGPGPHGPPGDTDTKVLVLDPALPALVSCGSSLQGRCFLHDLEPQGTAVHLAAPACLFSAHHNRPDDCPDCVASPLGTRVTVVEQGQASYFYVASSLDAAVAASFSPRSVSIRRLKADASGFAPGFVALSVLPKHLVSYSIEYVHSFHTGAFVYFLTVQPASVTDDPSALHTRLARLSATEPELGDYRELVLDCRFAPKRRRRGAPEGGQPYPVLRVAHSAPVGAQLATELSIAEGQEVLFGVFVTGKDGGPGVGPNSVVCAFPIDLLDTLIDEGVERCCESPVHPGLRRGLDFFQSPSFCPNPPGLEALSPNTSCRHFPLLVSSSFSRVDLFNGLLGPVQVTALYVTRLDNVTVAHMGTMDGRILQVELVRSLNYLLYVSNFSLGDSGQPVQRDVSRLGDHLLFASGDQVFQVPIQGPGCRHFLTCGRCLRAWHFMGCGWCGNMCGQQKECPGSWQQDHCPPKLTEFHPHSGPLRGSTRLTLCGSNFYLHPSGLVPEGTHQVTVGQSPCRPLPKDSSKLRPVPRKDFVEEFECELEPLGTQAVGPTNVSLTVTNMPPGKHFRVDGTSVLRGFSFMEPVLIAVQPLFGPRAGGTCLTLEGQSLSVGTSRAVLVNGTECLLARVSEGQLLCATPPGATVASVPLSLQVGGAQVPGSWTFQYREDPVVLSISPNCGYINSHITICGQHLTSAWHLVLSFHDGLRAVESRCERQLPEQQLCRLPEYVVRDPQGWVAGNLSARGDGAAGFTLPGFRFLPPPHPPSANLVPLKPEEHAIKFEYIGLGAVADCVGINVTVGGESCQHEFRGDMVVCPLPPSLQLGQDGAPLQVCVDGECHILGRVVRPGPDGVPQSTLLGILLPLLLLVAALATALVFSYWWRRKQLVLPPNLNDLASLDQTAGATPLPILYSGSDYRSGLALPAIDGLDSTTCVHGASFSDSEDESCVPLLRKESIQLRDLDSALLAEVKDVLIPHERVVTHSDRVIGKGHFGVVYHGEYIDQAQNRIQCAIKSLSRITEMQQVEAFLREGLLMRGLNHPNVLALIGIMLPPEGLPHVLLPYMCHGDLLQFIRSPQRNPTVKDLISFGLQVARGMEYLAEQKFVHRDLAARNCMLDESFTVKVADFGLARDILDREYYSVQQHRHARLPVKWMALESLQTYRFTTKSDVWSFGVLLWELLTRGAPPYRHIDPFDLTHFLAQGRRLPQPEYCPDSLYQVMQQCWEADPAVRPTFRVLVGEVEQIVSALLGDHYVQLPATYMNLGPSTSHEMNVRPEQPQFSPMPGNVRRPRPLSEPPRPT

[19] = biological target: ABL1 (M351T)-phosphorylated (Homo sapiens, UniProt P00519, M351T)
[20] = biological target: INSR (Homo sapiens, UniProt P06213)
[21] = biological target: CAMKK2 (Homo sapiens, UniProt Q96RR4)
[22] = biological target: TAK1 (Homo sapiens, UniProt O43318)
[23] = biological target: EPHA2 (Homo sapiens, UniProt P29317)
[24] = biological target: T3, MYLK (Homo sapiens, UniProt Q15746)
T3 construct: T7 phage fusion (said for most assays); made in house

[25] = biological target: PKNB (M.tuberculosis) (Mycobacterium tuberculosis, UniProt P9WI81)
[26] = biological target: BRK (Homo sapiens, UniProt Q13882)
[27] = biological target: T4, MYLK2 (Homo sapiens, UniProt Q9H1R3)
T4 construct: T7 phage fusion (said for most assays); made in house

[28] = biological target: AAK1 (Homo sapiens, UniProt Q2M2I8)
[29] = biological target: T5, MST1 (Homo sapiens, UniProt Q13043)
T5 construct: T7 phage fusion (stated for most kinases of the panel only); made in house; host or cells: T7 phage in E. coli (BL21-derived) or HEK-293 cells
T5 sequence (Q13043 whole entry, the tested form may be a part): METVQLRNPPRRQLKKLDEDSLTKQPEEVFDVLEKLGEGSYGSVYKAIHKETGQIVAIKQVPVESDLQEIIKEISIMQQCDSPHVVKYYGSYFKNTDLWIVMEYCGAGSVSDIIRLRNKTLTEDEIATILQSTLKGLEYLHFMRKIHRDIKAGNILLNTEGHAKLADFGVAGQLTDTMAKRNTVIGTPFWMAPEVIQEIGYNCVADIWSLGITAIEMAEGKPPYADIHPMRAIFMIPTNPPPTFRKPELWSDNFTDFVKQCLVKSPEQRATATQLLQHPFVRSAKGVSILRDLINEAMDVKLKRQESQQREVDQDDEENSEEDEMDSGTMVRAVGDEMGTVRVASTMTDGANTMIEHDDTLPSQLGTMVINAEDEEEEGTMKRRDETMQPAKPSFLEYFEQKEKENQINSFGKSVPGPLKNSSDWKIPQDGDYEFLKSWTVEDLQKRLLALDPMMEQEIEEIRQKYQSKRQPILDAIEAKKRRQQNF

[30] = biological target: DDR2 (Homo sapiens, UniProt Q16832)
[31] = biological target: FRK (Homo sapiens, UniProt P42685)
Sequence of FRK (P42685 whole entry): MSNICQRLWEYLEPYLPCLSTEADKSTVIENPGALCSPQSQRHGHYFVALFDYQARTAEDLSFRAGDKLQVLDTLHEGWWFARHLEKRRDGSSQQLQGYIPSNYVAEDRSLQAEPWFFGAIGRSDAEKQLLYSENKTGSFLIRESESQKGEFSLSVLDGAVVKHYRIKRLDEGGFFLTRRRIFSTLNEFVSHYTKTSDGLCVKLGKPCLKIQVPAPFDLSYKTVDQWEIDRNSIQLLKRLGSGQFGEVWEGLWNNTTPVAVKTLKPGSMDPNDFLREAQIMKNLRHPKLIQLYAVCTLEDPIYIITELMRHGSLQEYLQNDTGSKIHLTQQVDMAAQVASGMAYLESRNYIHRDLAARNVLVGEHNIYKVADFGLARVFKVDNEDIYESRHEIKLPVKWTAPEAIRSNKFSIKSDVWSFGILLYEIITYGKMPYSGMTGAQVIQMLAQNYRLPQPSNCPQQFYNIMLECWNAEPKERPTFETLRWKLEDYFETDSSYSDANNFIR

[32] = biological target: CDK8 (Homo sapiens, UniProt P49336)
[33] = biological target: T6, NEK2 (Homo sapiens, UniProt P51955)
T6 construct: T7 phage fusion (said for most assays); made in house

[34] = biological target: MAP4K5 (Homo sapiens, UniProt Q9Y4K4)
[35] = biological target: ABL2 (Homo sapiens, UniProt P42684)
[36] = biological target: BTK (Homo sapiens, UniProt Q06187)
Sequence of BTK (Q06187 whole entry): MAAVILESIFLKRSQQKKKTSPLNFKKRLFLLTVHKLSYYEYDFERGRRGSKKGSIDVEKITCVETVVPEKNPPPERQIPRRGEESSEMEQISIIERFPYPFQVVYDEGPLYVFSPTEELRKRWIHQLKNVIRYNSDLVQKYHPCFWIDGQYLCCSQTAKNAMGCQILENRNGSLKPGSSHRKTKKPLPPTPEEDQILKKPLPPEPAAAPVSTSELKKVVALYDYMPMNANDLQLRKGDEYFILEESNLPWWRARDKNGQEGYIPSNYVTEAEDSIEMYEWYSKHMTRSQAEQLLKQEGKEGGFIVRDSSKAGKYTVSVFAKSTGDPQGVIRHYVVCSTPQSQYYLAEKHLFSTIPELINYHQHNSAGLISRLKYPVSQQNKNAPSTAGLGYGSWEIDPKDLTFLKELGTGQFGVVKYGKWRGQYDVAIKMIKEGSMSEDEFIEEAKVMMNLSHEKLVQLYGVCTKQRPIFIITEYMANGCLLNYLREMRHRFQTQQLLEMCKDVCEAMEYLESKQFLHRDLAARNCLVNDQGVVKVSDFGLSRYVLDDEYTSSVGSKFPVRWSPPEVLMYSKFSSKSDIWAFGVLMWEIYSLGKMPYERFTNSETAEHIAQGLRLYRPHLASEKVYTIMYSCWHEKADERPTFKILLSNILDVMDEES

[37] = biological target: YANK3 (Homo sapiens, UniProt Q86UX6)
[38] = biological target: PKAC-beta (Homo sapiens, UniProt P22694)
[39] = biological target: PRP4 (Homo sapiens, UniProt Q13523)
[40] = biological target: PIK3CA (I800L) (Homo sapiens, UniProt P42336, I800L)

Sequence of p38-alpha (Q16539 whole entry): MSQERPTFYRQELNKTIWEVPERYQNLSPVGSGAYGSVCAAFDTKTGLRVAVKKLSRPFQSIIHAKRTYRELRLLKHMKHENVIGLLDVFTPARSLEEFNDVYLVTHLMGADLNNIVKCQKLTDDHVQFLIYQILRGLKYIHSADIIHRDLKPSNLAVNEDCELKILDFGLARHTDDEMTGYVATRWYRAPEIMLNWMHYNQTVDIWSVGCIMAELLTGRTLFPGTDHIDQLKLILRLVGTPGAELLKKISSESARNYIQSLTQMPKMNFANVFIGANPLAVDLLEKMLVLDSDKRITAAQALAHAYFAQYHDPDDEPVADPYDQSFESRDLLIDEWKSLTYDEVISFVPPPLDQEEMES

Question: With `Cc1cc(Oc2cc(NC(=O)C3CC3)ncn2)ccc1NC(=O)Nc1ccc(Cl)c(C(F)(F)F)c1` [CBT-102] as the compound, how does the remaining activity at 1 µM [1] read?
Answer: 9.1%

Question: And the remaining activity at 1 µM [2]?
Answer: 0%

Question: What about the remaining activity at 1 µM [3] of the same compound?
Answer: 99%

Question: What about the remaining activity at 1 µM [4] of the same compound?
Answer: 87%

Question: What about the remaining activity at 1 µM [5] of the same compound?
Answer: 80%

Question: What about the remaining activity at 1 µM [6] of the same compound?
Answer: 100%

Question: What about the remaining activity at 1 µM [7] of the same compound?
Answer: 93%

Question: And the remaining activity at 1 µM [8]?
Answer: 54%

Question: And the remaining activity at 1 µM [9]?
Answer: 49%

Question: What about the remaining activity at 1 µM [10] of the same compound?
Answer: 98%

Question: And the remaining activity at 1 µM [11]?
Answer: 100%

Question: What about the remaining activity at 1 µM [12] of the same compound?
Answer: 100%

Question: And the remaining activity at 1 µM [13]?
Answer: 58%

Question: What about the remaining activity at 1 µM [14] of the same compound?
Answer: 100%

Question: And the remaining activity at 1 µM [15]?
Answer: 97%

Question: And the remaining activity at 1 µM [16]?
Answer: 82%

Question: And the remaining activity at 1 µM [17]?
Answer: 100%

Question: What about the remaining activity at 1 µM [18] of the same compound?
Answer: 89%

Question: And the remaining activity at 1 µM [19]?
Answer: 65%

Question: And the remaining activity at 1 µM [20]?
Answer: 100%

Question: What about the remaining activity at 1 µM [21] of the same compound?
Answer: 92%

Question: What about the remaining activity at 1 µM [22] of the same compound?
Answer: 12%

Question: What about the remaining activity at 1 µM [23] of the same compound?
Answer: 40%

Question: And the remaining activity at 1 µM [24]?
Answer: 98%

Question: And the remaining activity at 1 µM [25]?
Answer: 100%

Question: What about the remaining activity at 1 µM [26] of the same compound?
Answer: 89%

Question: What about the remaining activity at 1 µM [27] of the same compound?
Answer: 98%

Question: And the remaining activity at 1 µM [28]?
Answer: 96%

Question: What about the remaining activity at 1 µM [29] of the same compound?
Answer: 100%

Question: And the remaining activity at 1 µM [30]?
Answer: 1.1%

Question: What about the remaining activity at 1 µM [31] of the same compound?
Answer: 6.1%

Question: And the remaining activity at 1 µM [32]?
Answer: 14%

Question: And the remaining activity at 1 µM [33]?
Answer: 98%

Question: And the remaining activity at 1 µM [34]?
Answer: 2.2%

Question: What about the remaining activity at 1 µM [35] of the same compound?
Answer: 40%

Question: And the remaining activity at 1 µM [36]?
Answer: 77%

Question: And the remaining activity at 1 µM [37]?
Answer: 88%

Question: And the remaining activity at 1 µM [38]?
Answer: 95%

Question: And the remaining activity at 1 µM [39]?
Answer: 95%

Question: And the remaining activity at 1 µM [40]?
Answer: 91%
